Measured values taken from US4656166A, “Antibiotic compounds derived from cephalosporins, process for their production and pharmaceutical compositions” (Sanofi, priority 1983, dated 1987).
Values after ≈ are worked out from the molar mass of the structure shown. Counter-ions that a name gives are not always drawn. Like-named read-outs stand apart in the source and are kept apart here.

Columns and labels:
[1] = tested on: Proteus vulgaris GN 76/C.1; assay: MIC on beta-lactamase producing strain Proteus vulgaris GN 76/C.1 (Table IV); format: cell-based; conditions: GN76
Experimental: (§1) To evaluate the stability of these products towards beta-lactamases, their MIC was determined on isogenic strains producing and not producing beta-lactamases.
(§2) The results are expressed in μg/ml in Table IV.

[2] = tested on: Serrtia liquefaciens SL/326 A; assay: MIC on beta-lactamase producing strain Serratia liquefaciens SL/326 A (Table IV); format: cell-based
Experimental: as §1, §2

Escherichia coli 255/L.7 = assay: MIC on strain not producing beta-lactamase, Escherichia coli 255/L.7 (Table IV); format: cell-based
Experimental: as §1, §2

Klebsiella RO 30 [3] = assay: septicemic model of the mouse, Klebsiella RO 30 (Table V); format: in vivo; conditions: RO30, sc, 96 h, mouse septicemia, sub-cutaneous, 4 days observation, read-out: DE50 (the source's name)
Escherichia coli 255 = assay: MIC on beta-lactamase producing strain Escherichia coli 255 (Table IV); format: cell-based; conditions: Escherichia coli 255, producing beta-lactamases; read-out: MIC
Experimental: as §1, §2

Escherichia coli SOL 90 [4] = assay: septicemic model of the mouse, Escherichia coli SOL 90 (Table V); format: in vivo; conditions: SOL90, sc, 96 h, mouse septicemia, sub-cutaneous, 1 to 5 hours after inoculation, 4 days observation, read-out: DE50 (the source's name)
Experimental: The therapeutic effectiveness of the products was determined on the septicemic model of the mouse. the septicemia was initiated by the intraperitoneal innoculation of 0.5 ml of a suitable dilution of a suspension of the Escherichia coli SOL 90 strain. The products were administered in solution in a phosphate buffer pH 7.0 in a volume of 0.2 ml sub-cutaneously to batches of 10 mice, 1 to 5 hours after innoculation of the microorganism. After 4 days of observation in the course of which the mortality was noted, the 50% effective doses (DE 50) were calculated by the Muench and Reed method.

[5] = tested on: Serrtia liquefaciens SL 1326 S; assay: MIC on strain not producing beta-lactamase, Serratia liquefaciens SL 1326 S (Table IV); format: cell-based; conditions: SL1326S, not producing beta-lactamases
Experimental: as §1, §2

[6] = tested on: Proteus vulgaris RL 99 bis; assay: MIC, in vitro dilution method, Proteus vulgaris RL 99 bis (Table III); format: cell-based; conditions: RL99BIS
How it was run: (§3)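 In vitro dilution method, Gram-negative strain panel; read-out = minimum inhibiting concentration, μg/ml.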

Escherichia coli SOL 90 [7] = assay: MIC, in vitro dilution method, Escherichia coli SOL 90 (Table III); format: cell-based; conditions: SOL90
How it was run: as §3

Citrobacter RL 49 = assay: MIC, in vitro dilution method, Citrobacter RL 49 (Table III); format: cell-based; conditions: RL49
How it was run: as §3

Pseudomonas RL 112 = assay: MIC, in vitro dilution method, Pseudomonas RL 112 (Table III); format: cell-based; conditions: RL112
How it was run: as §3

Serratia RL 72 = assay: MIC, in vitro dilution method, Serratia RL 72 (Table III); format: cell-based; conditions: RL72
How it was run: as §3

Enterobacter RO 154 = assay: MIC, in vitro dilution method, Enterobacter RO 154 (Table III); format: cell-based; conditions: RO154
How it was run: as §3

Klebsiella RO 30 [8] = assay: MIC, in vitro dilution method, Klebsiella RO 30 (Table III); format: cell-based; conditions: RO30
How it was run: as §3

[9] = tested on: Proteus vulgaris GN 76/C.1/3; assay: MIC on strain not producing beta-lactamase, Proteus vulgaris GN 76/C.1/3 (Table IV); format: cell-based; conditions: GN76, not producing beta-lactamases
Experimental: as §1, §2

[10] = Proteus vulgaris GN 76/C.1, producing beta-lactamases, read-out: MIC
[11] = Escherichia coli 255/L.7 *, not producing beta-lactamases, read-out: MIC
[12] = Proteus vulgaris RL 99 bis, dilution method, read-out: MIC
[13] = Escherichia coli SOL 90, dilution method, read-out: MIC
[14] = Citrobacter RL 49, dilution method, read-out: MIC
[15] = Enterobacter RO 154, dilution method, read-out: MIC
[16] = Klebsiella RO 30, dilution method, read-out: MIC

Structure (SMILES) | MIC [1, 10] | MIC [2] | MIC (Escherichia coli 255/L.7; [11]) | ED50 (Klebsiella RO 30 [3]) | MIC (Escherichia coli 255) | ED50 (Escherichia coli SOL 90 [4]) | MIC [5] | MIC [6, 12] | MIC (Escherichia coli SOL 90 [7]; [13]) | MIC (Citrobacter RL 49; [14]) | MIC (Pseudomonas RL 112) | MIC (Serratia RL 72) | MIC (Enterobacter RO 154; [15]) | MIC (Klebsiella RO 30 [8]; [16]) | MIC [9] | other results
CC(C)(ON=C(C(=O)NC1C(=O)N2C(C(=O)O)=C(CSC(=O)C3CCNCC3)C[S+]([O-])C12)c1csc(N)n1)C(=O)O (stereo not drawn) [compound 41973] | 0.5 µg/mL (≈ 0.795 µM) | 0.25 µg/mL (≈ 0.398 µM) | 0.25 µg/mL (≈ 0.398 µM) | 0.4 mg/kg | 0.25 µg/mL (≈ 0.398 µM) | 0.22 mg/kg | ≤ 0.12 µg/mL | – | – | – | – | – | – | – | – | –
CC(C)(O/N=C(\C(=O)NC1C(=O)N2C(C(=O)O)=C(COC(=O)CCN)C[S+]([O-])C12)c1csc(N)n1)C(=O)O (stereo not drawn) [41 730] | 0.25 µg/mL (≈ 0.437 µM) | 0.5 µg/mL (≈ 0.873 µM) | ≤ 0.12 µg/mL | 0.79 mg/kg | 0.25 µg/mL (≈ 0.437 µM) | 1.4 mg/kg | ≤ 0.12 µg/mL | ≤ 0.12 µg/mL | 0.5 µg/mL (≈ 0.873 µM) | 0.25 µg/mL (≈ 0.437 µM) | 4 µg/mL (≈ 6.99 µM) | 1 µg/mL (≈ 1.75 µM) | 0.25 µg/mL (≈ 0.437 µM) | 0.25 µg/mL (≈ 0.437 µM) | – | –
CC(C)(O/N=C(\C(=O)NC1C(=O)N2C(C(=O)O)=C(COC(=O)CCCCCN)C[S+]([O-])C12)c1csc(N)n1)C(=O)O (stereo not drawn) [41 855] | ≤ 0.12 µg/mL | 0.25 µg/mL (≈ 0.407 µM) | ≤ 0.12 µg/mL | 0.17 mg/kg | ≤ 0.12 µg/mL | 0.16 mg/kg | ≤ 0.12 µg/mL | ≤ 0.12 µg/mL | 0.25 µg/mL (≈ 0.407 µM) | 1 µg/mL (≈ 1.63 µM) | 8 µg/mL (≈ 13 µM) | 0.5 µg/mL (≈ 0.813 µM) | 2 µg/mL (≈ 3.25 µM) | 0.25 µg/mL (≈ 0.407 µM) | ≤ 0.12 µg/mL | –
CC(C)(O/N=C(\C(=O)NC1C(=O)N2C(C(=O)O)=C(COC(=O)CCCN)C[S+]([O-])C12)c1csc(N)n1)C(=O)O (stereo not drawn) [41 854] | 0.25 µg/mL (≈ 0.426 µM) | 0.25 µg/mL (≈ 0.426 µM) | ≤ 0.12 µg/mL | 0.19 mg/kg | ≤ 0.12 µg/mL | 0.23 mg/kg | ≤ 0.12 µg/mL | ≤ 0.12 µg/mL | 0.25 µg/mL (≈ 0.426 µM) | 0.5 µg/mL (≈ 0.852 µM) | 4 µg/mL (≈ 6.82 µM) | 0.5 µg/mL (≈ 0.852 µM) | 2 µg/mL (≈ 3.41 µM) | 0.25 µg/mL (≈ 0.426 µM) | – | –
CC(C)(O/N=C(\C(=O)NC1C(=O)N2C(C(=O)O)=C(COC(=O)C3CCNCC3)C[S+]([O-])C12)c1csc(N)n1)C(=O)O (stereo not drawn) [41 862, 7-[2-(2-Amino 4-thiazolyl)2-(2-carboxy 2-propyloxyimino)acetamido]3-(4-piperidinyl)carbonyl oxymethyl 3-cepheme 4-carboxylic1β-S-oxide acid trifluoroacetate syn isomer] | ≤ 0.12 µg/mL | ≤ 0.25 µg/mL | – | 0.1 mg/kg | ≤ 0.12 µg/mL | 0.13 mg/kg | ≤ 0.12 µg/mL | ≤ 0.12 µg/mL | 0.25 µg/mL | 0.25 µg/mL | 4 µg/mL | 0.5 µg/mL | 1 µg/mL | 0.25 µg/mL | ≤ 0.12 µg/mL | MIC (Escherichia coli 255/L.7; Escherichia coli, 255/L.7): 0.12 µg/mL
CC(C)(CN)C(=O)OCC1=C(C(=O)O)N2C(=O)C(NC(=O)/C(=N\OC(C)(C)C(=O)O)c3csc(N)n3)C2[S+]([O-])C1 (stereo not drawn) [42 073] | 0.5 µg/mL (≈ 0.832 µM) | 0.25 µg/mL (≈ 0.416 µM) | 0.25 µg/mL (≈ 0.416 µM) | – | 0.5 µg/mL (≈ 0.832 µM) | 0.33 mg/kg | ≤ 0.12 µg/mL | 0.5 µg/mL (≈ 0.832 µM) | 1 µg/mL (≈ 1.66 µM) | 0.5 µg/mL (≈ 0.832 µM) | 4 µg/mL (≈ 6.66 µM) | 2 µg/mL (≈ 3.33 µM) | 4 µg/mL (≈ 6.66 µM) | 0.5 µg/mL (≈ 0.832 µM) | – | –
CC(C)(ON=C(C(=O)NC1C(=O)N2C(C(=O)O)=C(CSC(=O)c3ccc(CN)cc3)C[S+]([O-])C12)c1csc(N)n1)C(=O)O (stereo not drawn) [compound 42119] | 0.12 µg/mL (≈ 0.184 µM) | 0.25 µg/mL (≈ 0.384 µM) | 0.12 µg/mL (≈ 0.184 µM) | – | 0.25 µg/mL (≈ 0.384 µM) | 0.16 mg/kg | ≤ 0.06 µg/mL | ≤ 0.12 µg/mL | 0.5 µg/mL (≈ 0.768 µM) | 0.25 µg/mL (≈ 0.384 µM) | 8 µg/mL (≈ 12.3 µM) | 4 µg/mL (≈ 6.15 µM) | 8 µg/mL (≈ 12.3 µM) | 0.5 µg/mL (≈ 0.768 µM) | – | –
CC(C)(O/N=C(\C(=O)NC1C(=O)N2C(C(=O)O)=C(COC(=O)c3ccc(CN)cc3)C[S+]([O-])C12)c1csc(N)n1)C(=O)O (stereo not drawn) [42 042] | ≤ 0.12 µg/mL | 0.25 µg/mL (≈ 0.394 µM) | ≤ 0.12 µg/mL | – | ≤ 0.12 µg/mL | 0.05 mg/kg | ≤ 0.12 µg/mL | ≤ 0.12 µg/mL | ≤ 0.12 µg/mL | ≤ 0.12 µg/mL | 4 µg/mL (≈ 6.3 µM) | 2 µg/mL (≈ 3.15 µM) | 1 µg/mL (≈ 1.58 µM) | ≤ 0.12 µg/mL | ≤ 0.12 µg/mL | –
CC(C)(O/N=C(\C(=O)NC1C(=O)N2C(C(=O)O)=C(COC(=O)[C@H]3CC[C@H](CN)CC3)C[S+]([O-])C12)c1csc(N)n1)C(=O)O (stereo partly drawn) [42 117] | ≤ 0.06 µg/mL | 0.12 µg/mL (≈ 0.187 µM) | 0.06 µg/mL (≈ 0.0936 µM) | – | 0.125 µg/mL (≈ 0.195 µM) | 0.11 mg/kg | ≤ 0.06 µg/mL | ≤ 0.12 µg/mL | 0.25 µg/mL (≈ 0.39 µM) | 0.25 µg/mL (≈ 0.39 µM) | 4 µg/mL (≈ 6.24 µM) | 0.5 µg/mL (≈ 0.78 µM) | 1 µg/mL (≈ 1.56 µM) | ≤ 0.12 µg/mL | ≤ 0.06 µg/mL | –
CNCc1ccc(C(=O)OCC2=C(C(=O)O)N3C(=O)C(NC(=O)/C(=N\OC(C)(C)C(=O)O)c4csc(N)n4)C3[S+]([O-])C2)cc1 (stereo not drawn) [42 395] | – | 0.125 µg/mL (≈ 0.193 µM) | 0.0625 µg/mL (≈ 0.0964 µM) | – | 0.0625 µg/mL (≈ 0.0964 µM) | – | ≤ 0.0312 µg/mL | – | – | – | 4 µg/mL (≈ 6.17 µM) | 0.5 µg/mL (≈ 0.771 µM) | – | – | ≤ 0.0312 µg/mL | MIC ([1]; Proteus vulgaris): ≤ 0.0312 µg/mL; MIC ([6]; Proteus vulgaris): ≤ 0.125 µg/mL; MIC (Escherichia coli SOL 90 [7]; Escherichia coli): ≤ 0.125 µg/mL; MIC (Citrobacter RL 49; Citrobacter): ≤ 0.125 µg/mL; MIC (Enterobacter RO 154; Enterobacter): ≤ 0.125 µg/mL; MIC (Klebsiella RO 30 [8]; Klebsiella): ≤ 0.125 µg/mL
